biological target: T1, Thromboxane-A synthase (Homo sapiens, UniProt P24557); assay: In vitro inhibition of thromboxane synthase
T1 sequence (P24557 whole entry): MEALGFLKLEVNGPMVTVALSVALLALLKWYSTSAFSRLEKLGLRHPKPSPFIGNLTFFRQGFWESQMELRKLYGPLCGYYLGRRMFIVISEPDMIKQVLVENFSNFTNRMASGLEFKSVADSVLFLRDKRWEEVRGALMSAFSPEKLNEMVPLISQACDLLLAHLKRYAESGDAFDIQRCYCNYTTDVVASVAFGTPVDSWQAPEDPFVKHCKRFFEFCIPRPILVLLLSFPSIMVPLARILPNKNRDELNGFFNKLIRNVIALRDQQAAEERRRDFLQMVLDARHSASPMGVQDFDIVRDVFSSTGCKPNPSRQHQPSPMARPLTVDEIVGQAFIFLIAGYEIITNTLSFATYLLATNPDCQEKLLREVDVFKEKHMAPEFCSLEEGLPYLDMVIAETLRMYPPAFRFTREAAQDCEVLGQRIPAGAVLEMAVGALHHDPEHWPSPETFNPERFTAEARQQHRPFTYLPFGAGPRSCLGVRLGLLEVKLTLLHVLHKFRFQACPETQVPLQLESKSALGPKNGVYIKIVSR

IC50 [nM] | SMILES
> 200 | O=C(O)CC/C=C\CC[C@@H]1[C@@H](c2cccnc2)[S@@+]([O-])C[C@H]1OCc1ccc(-c2ccccc2)cc1
> 200 | O=C(O)CC/C=C\CC[C@@H]1[C@@H](c2cccnc2)[S@+]([O-])C[C@H]1OCc1ccc(-c2ccccc2)cc1
> 200 | O=C(O)CC/C=C\CC[C@H]1[C@@H](OCc2ccc(-c3ccccc3)cc2)CS(=O)(=O)[C@@H]1c1cccnc1
11 | O=C(O)CC/C=C\CC[C@H]1[C@@H](OCc2ccc(-c3ccccc3)cc2)CS[C@@H]1c1cccnc1
> 100 | O=C(O)CC/C=C\CC[C@H]1[C@@H](OCc2ccc(-c3ccccc3)cc2)C[S+]([O-])[C@@H]1c1cccnc1 (some centres not stated)
> 200 | O=C(O)CC/C=C\CC[C@@H]1[C@@H](c2cccnc2)S(=O)(=O)C[C@H]1OCc1ccc(-c2ccccc2)cc1
43 | O=C(O)CCC/C=C\C[C@@H]1[C@@H](c2cccnc2)SC[C@H]1OCc1ccc(-c2ccccc2)cc1
10 | O=C(O)CC/C=C\CC[C@@H]1[C@@H](c2cccnc2)SC[C@H]1OCc1ccc(-c2ccccc2)cc1 (stereo in doubt; 1)
18 | O=C(O)CC/C=C\CC[C@@H]1[C@@H](c2cccnc2)SC[C@H]1OCc1ccc(-c2ccccc2)cc1 (stereo in doubt; (+))
13 | O=C(O)CC/C=C\CC[C@@H]1[C@@H](c2cccnc2)SC[C@H]1OCc1ccc(-c2ccccc2)cc1 (stereo in doubt; (-))
3 | O=C(O)CCCCCc1cccc2cncn12 [PIRMAGREL]

biological target: T2, Thromboxane A2 receptor (Homo sapiens, UniProt P21731); assay: In vitro thromboxane receptor antagonist activity was determined by inhibition of U-46619 induced aggregation of washed human platelets; type: functional
T2 sequence (P21731 whole entry): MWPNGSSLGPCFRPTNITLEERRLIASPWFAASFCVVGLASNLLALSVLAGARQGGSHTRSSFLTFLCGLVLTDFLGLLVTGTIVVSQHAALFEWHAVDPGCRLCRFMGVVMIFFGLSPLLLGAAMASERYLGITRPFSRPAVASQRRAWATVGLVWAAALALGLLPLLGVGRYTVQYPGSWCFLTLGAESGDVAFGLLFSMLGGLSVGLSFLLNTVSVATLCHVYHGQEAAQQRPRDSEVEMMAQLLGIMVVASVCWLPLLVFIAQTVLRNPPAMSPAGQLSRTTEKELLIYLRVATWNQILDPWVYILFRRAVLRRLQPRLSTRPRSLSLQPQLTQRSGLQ

IC50 | SMILES
Not Active | O=C(O)CCCCCc1cccc2cncn12 [PIRMAGREL]

— ChEMBL document CHEMBL1127959, “Thia-prostanoid analogs with combined thromboxane receptor antagonist/thromboxane synthase inhibitor activities. Synthesis and pharmacological evaluation” (Bioorg Med Chem Lett, 1994)
